For 2 molecules, Bmax and Kd results are on record in ChEMBL document CHEMBL1133657, “Synthesis and pharmacological characterization of [(125)I]iodomethyllycaconitine ([(125)I]iodo-MLA). A new ligand for the alpha(7) nicotinic acetylcholine receptor” (J Med Chem, 2000).

For assay [1], the species on record is Rattus norvegicus. Nature of the assay: Bmax value(fmol/mg )was evaluated in rat brain using [125I]iodo-MLA.
The species named for assay [2] is Rattus norvegicus. Nature of the assay: Affinity constant Kd(nM) in rat brain cerebral cortex homogenates.
Assay [3] is filed under the species Rattus norvegicus. Nature of the assay: Bmax value(fmol/mg protein) was evaluated in rat brain using [3H]MLA.

For `CCN1C[C@]2(COC(=O)c3cc([125I])ccc3N3C(=O)C[C@H](C)C3=O)CC[C@H](OC)[C@@]34[C@@H]5C[C@H]6[C@H](OC)[C@@H]5[C@](O)(C[C@@H]6OC)[C@](O)([C@@H](OC)[C@H]23)[C@@H]14`, the Bmax in the assay filed under Rattus norvegicus [1] was 68 fmol/mg.
The molecule `[3H]c1cccc(N2C(=O)C[C@H](C)C2=O)c1C(=O)OC[C@@]12CC[C@H](OC)[C@@]34[C@@H]5C[C@H]6[C@H](OC)[C@@H]5[C@](O)(C[C@@H]6OC)[C@](O)([C@@H](OC)[C@H]13)[C@H]4N(CC)C2` [METHYLLYCACONITINE[3H] MLA] yielded a dissociation constant Kd in the assay filed under Rattus norvegicus [2] of 1.9 nM. Also, the Bmax in the assay filed under Rattus norvegicus [3] is 65 fmol/mg.

The term Kd denotes the constant that tells how readily two partners part at equilibrium. Higher therefore signals a looser complex.
